Test results reported in patent US20210145768A1, “MODULATING IMMUNE RESPONSE VIA TARGETING OF OLFACTORY RECEPTOR ACTIVITY” (La Jolla Institute for Allergy and Immunology, priority 2018, published 2021).
Entries after “also recorded” stand apart in the source; their conditions may differ.

Target: T1, Olfr2 (Mus musculus, UniProt Q9QWU6)
T1 sequence (Q9QWU6 1-327): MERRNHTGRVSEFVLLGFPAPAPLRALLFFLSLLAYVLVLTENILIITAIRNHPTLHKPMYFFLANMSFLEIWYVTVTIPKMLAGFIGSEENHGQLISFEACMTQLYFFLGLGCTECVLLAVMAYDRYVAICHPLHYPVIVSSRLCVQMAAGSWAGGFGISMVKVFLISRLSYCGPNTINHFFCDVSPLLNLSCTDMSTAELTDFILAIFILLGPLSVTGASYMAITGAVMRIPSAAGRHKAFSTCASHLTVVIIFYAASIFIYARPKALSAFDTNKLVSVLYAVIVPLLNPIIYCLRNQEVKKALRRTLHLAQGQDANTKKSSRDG
Test: Inflammatory gene expression (real time PCR) in explanted whole aortas treated with octanal, citral, LPS
Type: cell-based
Design: Olfr2 expression was confirmed at the protein level on F4/80^+ vascular macrophages; from tissue; host or cells: explanted whole aortas, digested aortic cell suspensions (F4/80+ vascular macrophages) and blood monocytes of Apoe-/- C57BL/6J mice; living Apoe-/- mice for the in vivo study
Details: for octanal-induced increase in CCL2, CCL4, TNF and iNOS (Nos2) expression: citral 100 μM with octanal 10 μM, in presence and absence of LPS; for mRNA expression of Ccl2, Ccl4, Tnf and Nos2 (iNOS): explanted whole aortas of Apoe−/− mice on WD 2 weeks, octanal 10 μM alone, normalized to Gapdh and untreated control
Procedure: Gene expression analysis was performed by harvesting whole aortas from apoE^−/− mice kept on western diet (WD) for 2 weeks and treating for 12h with DMSO (Ctrl), citral (Cit, 100 μM), octanal (Oct, 10 μM in DMSO) or lipopolysaccharide (lps, 0.5 μg/mL in DMSO) alone or in combination. After the incubation, aortas were transferred in Trizol reagent (1 ml) and digested with gentleMACS™ Dissociator (Millteny). Total RNA was then purified with RNAse Micro kit (Qiagen) and reverse transcribed using the Omniscript reverse transcriptase kit (Qiagen). Real-time PCR reaction was performed following the RT^2 Sybr green gene expression assay protocol (Qiagen). RT2 SYBR Green qPCR mastermix mix and premade RT^2 qPCR Primer Assay for mouse GAPDH, CCL2, CCL4, TNF, and iNOS were used. Data were normalized to the expression levels of the housekeeping gene GAPDH.
To test physiologic effects of Olfr2 activation in situ, explanted whole aortas of mice (n=5 per group) were treated with octanal with or without LPS. Briefly, whole aortas were left untreated or incubated with the Olfr2 agonist octanal (Oct, 10 μM), LPS, (500 ng/mL), or with both for 12 h. Quantitative Real time PCR reaction was performed to detect Ccl2, Ccl4, Tnf, and Nos2 gene expression. Relative expression was normalized to Gapdh expression and the untreated control. […] TNF secretion by vascular macrophages (F4/80+) was confirmed by intracellular staining using flow cytometry (FIG. 7F).
Apoe^−/− mice were fed WD for 2 weeks before sacrifice for aorta explant culture. Whole aortas were incubated in culture medium with DMSO (0.1% as a vehicle), octanal (Oct, 10 μM), LPS (500 ng/mL) alone or octanal and LPS combined (LPS+Oct) for 12 h at 37° C. and 5% CO2. Subsequently, aortas were collected and further processed as below discussed for RNA extraction, and flow cytometry analysis. Culture supernatants were collected, aliquoted, and frozen at −80° C. until further analysis.
BMDMs and hMDMs were incubated in culture media for 12 h at 37° C. and 5% CO2 with Oct, (10 μM), LPS (500 ng/mL) alone or combined with Oct (LPS+Oct) and DMSO (0.1%) as a control and lysed with Qiazol (500 μL; Qiagen) Similarly, whole aortas incubated as previously described were transferred into Qiazol (500 μl; Qiagen) and digested with gentleMACS™ Dissociator (Miltenyi).
RNA extraction was performed using a Qiazol/RNAeasy micro kit hybrid protocol (Qiagen).
Total RNA was quantified using a nanodrop spectrophotometer (Peqlab) and 500 ng were reverse transcribed into cDNA using Omniscript reverse transcriptase (Qiagen). Real time PCR reactions were performed according to the RT^2 SYBR green gene expression assay protocol (Qiagen). RT2 SYBR Green qPCR master mix and premade RT^2 qPCR Primer Assays for mouse Olfr2, Rtp1, Rtp2, Ccl2, Ccl4, Tnf, Nos2 and Gapdh were used. Similarly, real time PCR analysis of hMDMs samples was performed following the RT^2 SYBR green gene expression assay protocol (Qiagen), applying RT^2 SYBR Green qPCR master mix and premade RT^2 qPCR Primer Assays for human OR6A2, TNF, IL-6, NOS2 and GAPDH. The results were calculated applying the 2^−ΔΔCT method^32 using Gapdh/GAPDH as housekeeping gene.

| SMILES | octanal-induced increase in CCL2, CCL4, TNF and iNOS (Nos2) expression (explanted aortas, 12 h) | octanal-induced increase in CCL2, CCL4, TNF and iNOS (Nos2) expression (explanted aortas, 12 h, listed as Cit) | LPS-induced expression of inflammatory molecules (Ccl2, Ccl4, Tnf, Nos2) (explanted aortas, octanal 10 μM + LPS 500 ng/mL, 12 h) | mRNA expression of Ccl2, Ccl4, Tnf and Nos2 (iNOS) (12 h) | mRNA expression of Ccl2, Ccl4, Tnf and Nos2 (iNOS) (12 h, listed as Oct) | LPS induction of CCL2 (MCP-1) and CCL4 (qRT-PCR, octanal + LPS) | iNOS expression induced by LPS (qRT-PCR, octanal + LPS) | TNF expression (qRT-PCR, octanal + LPS, Olfr2 ligation required to reveal LPS-induced increase) | CCL2 and CCL4 expression (qRT-PCR, octanal alone (without LPS)) |
| --- | --- | --- | --- | --- | --- | --- | --- | --- | --- |
| CC(C)=CCCC(C)=CC=O [citral] | completely blocked; also recorded: effective at curbing inflammatory mediator expression | reduced |  |  |  |  |  |  |  |
| CCCCCCCC=O [octanal] |  |  | exacerbate the inflammatory response; also recorded: significantly enhances; also recorded: enhanced the LPS-induced expression | induces expression of inflammatory mediators; also recorded: induced mRNA expression | induces pro-inflammatory gene expression | significantly enhanced | greatly enhanced | greatest effect | measurable increase |
